Test results: US20260138949A1, “NOVEL COMPOUND AS PHOSPHOLIPASE D INHIBITOR AND USE THEREOF” (UIF (UNIVERSITY INDUSTRY FOUNDATION), YONSEI UNIVERSITY, priority 2022, published 2026)

System: phospholipase D1
Assay: PLD activity in HCT116 cells ([3H]phosphatidylbutanol, TLC)
Type: cell-based, human
Details: compound 10 μM, cells without the compound = 100%
Procedure: To evaluate the inhibitory effect of the compounds according to the present invention on phospholipase D1 activity, experiments were conducted as follows.
For the analysis of PLD activity in cells, human colon cancer cell line (HCT116) was cultured in a 6-well plate at 37° C. for 24 hours, washed twice with phosphate-buffered saline (PBS), and then replaced with medium containing [^3H]myristate and cultured for 24 hours. After the culture, the cells were washed three times with PBS, treated with 1-butanol, and the drug was added to a final concentration of 10 μM. The cells were trypsinized and suspended, and the amount of [^3H]phosphatidylbutanol produced in the cell suspension was measured and evaluated for PLD activity using thin layer chromatography (TLC), and the results are shown in Table 1 below.
The Remaining activity % at 10 μM in Table 1 is calculated by setting the amount of [^3H]phosphatidylbutanol produced in cells without the compound as 100% and calculating the amount of [^3H]phosphatidylbutanol produced in cells treated with the compound as a percentage. Therefore, the lower the value of Remaining activity %, the higher the PLD inhibitory activity.

SMILES	Remaining activity % at 10 μM	Remaining activity % at 10 μM (10 µM)
COc1ccccc1CNC(=O)Cc1c[nH]c2ccccc12 [Example 1-50, 2-(1H-indol-3-yl)-N-(2-methoxybenzyl)acetamide]	79.27%	–
O=C(Cc1c[nH]c2ccccc12)NNc1ccccc1Cl [Example 1-51, N′-(2-chlorophenyl)-2-(1H-indol-3-yl)acetohydrazide]	82.82%	–
O=C(Cc1c[nH]c2ccccc12)NNc1cccc(Cl)c1 [Example 1-52, N′-(3-chlorophenyl)-2-(1H-indol-3-yl)acetohydrazide]	95.18%	–
O=C(Cc1c[nH]c2ccccc12)NNc1ccc(Cl)cc1 [Example 1-53, N′-(4-chlorophenyl)-2-(1H-indol-3-yl)acetohydrazide]	not active	–
O=C(Cc1c[nH]c2ccccc12)NNc1ccc(Cl)c(Cl)c1 [Example 1-54, N′-(3,4-dichlorophenyl)-2-(1H-indol-3-yl)acetohydrazide]	not active	–
O=C(Cc1c[nH]c2ccccc12)NNc1ccc(Br)cc1 [Example 1-55, N′-(4-bromophenyl)-2-(1H-indol-3-yl)acetohydrazide]	77.89%	–
O=C(Cc1c[nH]c2ccccc12)NCc1ccccn1 [Example 1-56, 2-(1H-indol-3-yl)-N-(pyridin-2-ylmethyl)acetamide]	96.79%	–
O=C(Cc1c[nH]c2ccccc12)NCc1cccnc1 [Example 1-57, 2-(1H-indol-3-yl)-N-(pyridin-3-ylmethyl)acetamide]	not active	–
O=C(Cc1c[nH]c2ccccc12)NCc1ccncc1 [Example 1-58, 2-(1H-indol-3-yl)-N-(pyridin-4-ylmethyl)acetamide]	not active	–
O=C(Cc1c[nH]c2ccccc12)NCCc1ccccc1 [Example 1-59, 2-(1H-indol-3-yl)-N-phenethylacetamide]	not active	–
O=C(Cc1c[nH]c2ccccc12)NCCc1ccc(Br)cc1 [Example 1-60, N-(4-bromophenethyl)-2-(1H-indol-3-yl)acetamide]	82.15%	–
O=C(CCc1c[nH]c2ccccc12)Nc1ccccc1F [Example 1-61, N-(2-fluorophenyl)-3-(1H-indol-3-yl)propanamide]	45.47%	–
O=C(CCc1c[nH]c2ccccc12)Nc1cccc(F)c1 [Example 1-62, N-(3-fluorophenyl)-3-(1H-indol-3-yl)propanamide]	49.36%	–
O=C(CCc1c[nH]c2ccccc12)Nc1ccc(F)cc1 [Example 1-63, N-(4-fluorophenyl)-3-(1H-indol-3-yl)propanamide]	not active	–
O=C(CCc1c[nH]c2ccccc12)Nc1cccc(Br)c1 [Example 1-64, N-(3-bromophenyl)-3-(1H-indol-3-yl)propanamide]	not active	–
O=C(CCc1c[nH]c2ccccc12)Nc1ccc(Br)cc1 [Example 1-65, N-(4-bromophenyl)-3-(1H-indol-3-yl)propanamide]	not active	–
O=C(CCc1c[nH]c2ccccc12)Nc1cc(F)cc(F)c1 [Example 1-66, N-(3,5-difluorophenyl)-3-(1H-indol-3-yl)propanamide]	84.92%	–
O=C(CCc1c[nH]c2ccccc12)Nc1cc(C(F)(F)F)cc(C(F)(F)F)c1 [Example 1-67, N-(3,5-bis(trifluoromethyl)phenyl)-3-(1H-indol-3-yl)propanamide]	29.17%	–
O=C(CCc1c[nH]c2ccccc12)Nc1ccc(Cl)c([N+](=O)[O-])c1 [Example 1-68, N-(4-chloro-3-nitrophenyl)-3-(1H-indol-3-yl)propanamide]	not active	–
O=C(CCc1c[nH]c2ccccc12)Nc1ccc(Cl)c(Cl)c1 [Example 1-69, N-(3,4-dichlorophenyl)-3-(1H-indol-3-yl)propanamide]	not active	–
COc1ccc(NC(=O)CCc2c[nH]c3ccccc23)cc1OC [Example 1-70, N-(3,4-dimethoxyphenyl)-3-(1H-indol-3-yl)propanamide]	not active	–
COc1ccc(CNC(=O)CCc2c[nH]c3ccccc23)cc1 [Example 1-71, 3-(1H-indol-3-yl)-N-(4-methoxybenzyl)propanamide]	51.45%	–
O=C(CCc1c[nH]c2ccccc12)NCc1ccc(Cl)c(Cl)c1 [Example 1-72, N-(3,4-dichlorobenzyl)-3-(1H-indol-3-yl)propanamide]	not active	–
COc1ccc(CNC(=O)CCc2c[nH]c3ccccc23)cc1OC [Example 1-73, N-(3,4-dimethoxybenzyl)-3-(1H-indol-3-yl)propanamide]	95.81%	–

SMILES	Remaining activity % at 10 μM	Remaining activity % at 10 μM (10 µM)
O=C(CCCc1c[nH]c2ccccc12)Nc1cccc(F)c1 [Example 1-74, N-(3-fluorophenyl)-4-(1H-indol-3-yl)butanamide]	72.65%	–
O=C(CCCc1c[nH]c2ccccc12)Nc1ccc(F)cc1 [Example 1-75, N-(4-fluorophenyl)-4-(1H-indol-3-yl)butanamide]	not active	–
O=C(CCCc1c[nH]c2ccccc12)Nc1ccc(Br)cc1 [Example 1-76, N-(4-bromophenyl)-4-(1H-indol-3-yl)butanamide]	79.65%	–
O=C(CCCc1c[nH]c2ccccc12)Nc1cc(C(F)(F)F)cc(C(F)(F)F)c1 [Example 1-77, N-(3,5-bis(trifluoromethyl)phenyl)-4-(1H-indol-3-yl)butanamide]	50.79%	–
O=C(CCCc1c[nH]c2ccccc12)Nc1ccc(Cl)c([N+](=O)[O-])c1 [Example 1-78, N-(4-chloro-3-nitrophenyl)-4-(1H-indol-3-yl)butanamide]	42.24%	–
O=C(CCCc1c[nH]c2ccccc12)Nc1ccc(Cl)c(Cl)c1 [Example 1-79, N-(3,4-dichlorophenyl)-4-(1H-indol-3-yl)butanamide]	61.61%	–
COC(=O)c1ccc(CNC(=O)CCCc2c[nH]c3ccccc23)cc1 [Example 1-80, methyl 4-((4-(1H-indol-3-yl)butanamido)methyl)benzoate]	56.02%	–
COc1ccc(CNC(=O)CCCc2c[nH]c3ccccc23)cc1 [Example 1-81, 4-(1H-indol-3-yl)-N-(4-methoxybenzyl)butanamide]	59.84%	–
O=C(CCCc1c[nH]c2ccccc12)NCc1ccc(Cl)c(Cl)c1 [Example 1-82, N-(3,4-dichlorobenzyl)-4-(1H-indol-3-yl)butanamide]	94.09%	–
O=C(Nc1ccc(F)cc1)c1cc2ccccc2[nH]1 [Example 1-83, N-(4-fluorophenyl)-1H-indole-2-carboxamide]	not active	–
O=C(Nc1cc(C(F)(F)F)cc(C(F)(F)F)c1)c1cc2ccccc2[nH]1 [Example 1-84, N-(3,5-bis(trifluoromethyl)phenyl)-1H-indole-2-carboxamide]	26.01%	–
O=C(Nc1ccc(Cl)c([N+](=O)[O-])c1)c1cc2ccccc2[nH]1 [Example 1-85, N-(4-chloro-3-nitrophenyl)-1H-indole-2-carboxamide]	53.78%	–
O=C(Nc1ccc(Cl)c(Cl)c1)c1cc2ccccc2[nH]1 [Example 1-86, N-(3,4-dichlorophenyl)-1H-indole-2-carboxamide]	not active	–
COc1ccc(NC(=O)c2cc3ccccc3[nH]2)cc1OC [Example 1-87, N-(3,4-dimethoxyphenyl)-1H-indole-2-carboxamide]	71.67%	–
COC(=O)c1ccc(CNC(=O)c2cc3ccccc3[nH]2)cc1 [Example 1-88, methyl 4-((1H-indole-2-carboxamido)methyl)benzoate]	37.79%	–
O=C(NNc1ccc(Cl)c(Cl)c1)c1cc2ccccc2[nH]1 [Example 1-89, N′-(3,4-dichlorophenyl)-1H-indole-2-carbohydrazide]	–	83.22%
O=C(Nc1ccc(F)cc1)c1cc2cc(F)ccc2[nH]1 [Example 1-90, 5-fluoro-N-(4-fluorophenyl)-1H-indole-2-carboxamide]	48.64%	–
O=C(Nc1cc(F)cc(F)c1)c1cc2cc(F)ccc2[nH]1 [Example 1-92, N-(3,5-difluorophenyl)-5-fluoro-1H-indole-2-carboxamide]	56.88%	–
COc1ccc(NC(=O)c2cc3cc(F)ccc3[nH]2)cc1OC [Example 1-93, N-(3,4-dimethoxyphenyl)-5-fluoro-1H-indole-2-carboxamide]	58.09%	–
COc1ccc(CNC(=O)c2cc3cc(F)ccc3[nH]2)cc1OC [Example 1-94, N-(3,4-dimethoxybenzyl)-5-fluoro-1H-indole-2-carboxamide]	53.46%	–
O=C(Nc1cccc(C(F)(F)F)c1)c1cc2cc(F)ccc2[nH]1 [Example 1-95, 5-fluoro-N-(3-(trifluoromethyl)phenyl)-1H-indole-2-carboxamide]	52.08%	–
COc1cc(NC(=O)c2cc3cc(F)ccc3[nH]2)cc(OC)c1 [Example 1-96, N-(3,5-dimethoxyphenyl)-5-fluoro-1H-indole-2-carboxamide]	98.38%	–
O=C(Nc1ccccc1F)c1cc2cc(F)ccc2[nH]1 [Example 1-97, 5-fluoro-N-(2-fluorophenyl)-1H-indole-2-carboxamide]	not active	–
